Results: publication PMC3878918, “Cathepsin K inhibitors increase distal femoral bone mineral density in rapidly growing rabbits” (BMC Musculoskeletal Disorders, 2013)
Like-named read-outs stand apart in the source and are kept apart here.

Legend:
rabbit osteoclasts [1] = assay: In vitro bone resorption assay, rabbit osteoclasts on bovine bone slices, CTx-I release; assay type: cell-based
Procedure: The bone resorption assay is a functional in vitro assay that measures Type-I collagen degradation after a three-day incubation of rabbit osteoclasts cultured on bovine bone with varying concentrations of test compound, as previously described. Briefly, long bones isolated from a 10-day-old NZW rabbit were finely minced in alpha-minimal essential medium (α-MEM) (Gibco BRL; Gaithersburg, MD, USA) containing penicillin/streptomycin, pH 7.1 to obtain a cell suspension and 1 × 10^6 cells were seeded onto each 6 mm diameter × 0.22 mm thick bovine bone slice in the same medium containing 2% fetal bovine serum (FBS). After 4 h, the medium was replaced with α-MEM, 2% FBS, 1,25(OH)2D3 10 nM, and test compounds. The cultures were incubated for three days at 37°C in 5% CO2. C-telopeptide of Type-I collagen (CTx-I) released into the medium was measured by the CROSSLAPS Elisa assay (Osteometer Biotech, Herlev, Denmark).

rapidly growing rabbits = assay: Rabbit Schenk assay: distal femoral BMD by ex vivo DXA and histology after 10 days' treatment; assay type: in vivo; details: for increase in DFBMD vs vehicle / Distal femur BMD / DFBMD of representative DXA image / DFBMD / % BMD gain: 10 days; for Distal femur BMD / DFBMD: mean ± SEM; for DFBMD of representative DXA image: single representative femur; for DFBMD: dose-ranging study; for % BMD gain: vs vehicle
Procedure: To characterize the dose of ALN required to show increases in DFBMD, dose-ranging studies were conducted using ALN, administered at doses of 0, 50, 100, 200, and 500 μg/kg (SC, once daily). Seven-week-old rabbits were weight-randomized into groups (n = 8-11 per group). ALN was prepared in deionized water and pH adjusted to 7.2. The injection volume was 0.3 mL per rabbit. Rabbits were treated daily for 10 consecutive days. Rabbits were reweighed on Day 6 and dosing volume was adjusted accordingly. At necropsy, the right femur was excised and stored in 70% ethanol.
Rabbits were treated once daily by oral gavage for 10 consecutive days with vehicle (1% carboxymethylcellulose or 0.5%/0.2% carboxymethylcellulose/SDS), CatK inhibitors, or ALN (100 μg/kg, SC). Several studies were conducted, with each study including vehicle (n = 11–14), multiple dose levels of a CatK inhibitor (n = 13–14 per group), and ALN (n = 8–9). On Day 1, two rabbits from each group receiving CatK inhibitors were bled via the central ear artery (0.5 mL each) at 0, 0.25, 1, 3, 6, 8, and 24 h after dosing. Plasma concentrations of CatK inhibitors were determined in all samples. On Day 11, rabbits were euthanized. Femurs were removed and stored in 70% ethanol for BMD analysis.
Whole right femurs with muscles removed, were immersed in two inches of water in an acrylic box, and positioned with both distal condyles resting on the bottom of the box. The distal 5 cm of the femur was scanned using small animal software in high resolution mode on a Hologic QDR 4500 fan-beam bone densitometer (DXA; Hologic, Inc., Waltham, MA, USA). The distal 3 cm of the femur was analyzed. A region of interest (ROI) beginning one line distal to the distal edge of the femur and centered 70 lines wide and extending 60 lines proximally in the long axis of the bone was applied. Bone mineral content (BMC) and bone area (BAr) were output by DXA software. BMD was calculated as BMC/BAr.
Following ex vivo DXA scanning, the distal one-third of the femur was cut mid-sagitally and then dehydrated, without prior decalcification, in increasing concentrations of ethanol. The right portion was embedded in 80% methylmethacrylate/20% dibutyl phthalate. Parasagittal sections (6 μm) were cut on a Reichert-Jung Polycut sledge microtome (Nussloch, Germany) and mounted on glass slides. A Masson’s trichrome stain was performed to view calcified tissue.

rabbit CatK = details: 2 μM Z-Leu-Arg-AMC as substrate; cited from earlier work
rabbit osteoclasts [2] = test system: rabbit osteoclasts; parameters: method as in PMID 16302795, PMID 18226527; details: three-day incubation, CTx-I release; read-out: IC50 Rabbit bone resorption assay; cited from earlier work
[3] = parameters: method as in PMID 16302795, PMID 18226527; details: rabbit, cited from earlier work; for Cmin / AUC / Cmax: oral; for Cmin: trough at 24 h
growing rats = details: cited from earlier work; for trabecular bone volume in the proximal tibial metaphysis vs untreated rats: growing rats, ten days
human CatK = test system: human CatK; parameters: method as in PMID 19453281; details: cited from earlier work
rat CatK = test system: rat CatK; parameters: method as in PMID 19453281; details: cited from earlier work
mouse CatK = test system: mouse CatK; parameters: method as in PMID 19453281; details: cited from earlier work
weanling rats = details: six weeks of once-weekly treatment; cited from earlier work
[4] = printed in the 3 mg/kg dose row
[5] = printed in the 10 mg/kg dose row

## CN1CCN(c2nc(-c3ccc(C(=O)NC4(C(=O)NCC#N)CCCCC4)cc3)cs2)CC1 [Compound L-006235]
Rabbit osteoclasts [1]
  fold more potent in the bone resorption assay than L-833905: approximately 30 fold
Rapidly growing rabbits; 1 mg/kg oral once daily
  increase in DFBMD vs vehicle: 7%
  Distal femur BMD: 281.7 ± 4.9 mg/cm^2
Rapidly growing rabbits; 3 mg/kg oral once daily
  increase in DFBMD vs vehicle: 11%
  Distal femur BMD: 293.5 ± 2.8 mg/cm^2
Rapidly growing rabbits; 10 mg/kg oral once daily
  increase in DFBMD vs vehicle: 15%
  Distal femur BMD: 303.5 ± 5.4 mg/cm^2
Rabbit CatK
  IC50: 0.5 nM
Rabbit osteoclasts [2]
  IC50: 5 ± 1 nM
[3]; 1 mg/kg dose
  Cl: 113 mL/min/kg
[3]; 1 mg/kg, LOD ~ 1 nM
  Cmin: 9 nM
[3]; 1 mg/kg
  AUC: 0.3 μm*hr
  Cmax: 74 nM
[3]; 3 mg/kg
  Cmin: 15 nM
  AUC: 1.0 μm*hr
  Cmax: 337 nM
[3]; 10 mg/kg
  Cmin: 8 nM
  AUC: 5.0 μm*hr
  Cmax: 2440 nM
[3]; [4]
  Cl: 113 mL/min/kg
[3]; [5]
  Cl: 113 mL/min/kg

## CC(O)(P(=O)(O)O)P(=O)(O)O [etidronate]
Growing rats
  trabecular bone volume in the proximal tibial metaphysis vs untreated rats: higher trabecular bone volume

## CC(C)(F)C[C@H](N[C@@H](c1ccc(-c2ccc(S(C)(=O)=O)cc2)cc1)C(F)(F)F)C(=O)NC1(C#N)CC1 [ODN, odanacatib]
Rabbit osteoclasts [1]
  fold more potent in the bone resorption assay than L-833905: approximately 30 fold
Rapidly growing rabbits; 0.3 mg/kg oral once daily
  increase in DFBMD vs vehicle: 7%
Rapidly growing rabbits; 1 mg/kg oral once daily
  increase in DFBMD vs vehicle: 11%
Rapidly growing rabbits; 3 mg/kg oral once daily
  increase in DFBMD vs vehicle: 19%
Rapidly growing rabbits; ODN 3 mg/kg
  DFBMD of representative DXA image: 388 mg/cm^2
Rabbit CatK
  IC50: 1 nM
Rabbit osteoclasts [2]
  IC50: 23 ± 6 nM
[3]; 1 mg/kg dose
  Cl: 6 mL/min/kg
[3]; 0.3 mg/kg
  AUC: 0.7 μm*hr
[3]; 1 mg/kg, LOD ~ 1 nM
  Cmin: 37 nM
[3]; 1 mg/kg
  AUC: 2.2 μm*hr
  Cmax: 130 nM
[3]; 3 mg/kg
  Cmin: 88 nM
  AUC: 4.1 μm*hr
  Cmax: 270 nM
[3]; printed in the 0.3 mg/kg dose row
  Cl: 6 mL/min/kg
Human CatK
  IC50: 0.2 nM
Rat CatK
  IC50: 112 nM
  fold less potent versus rat CatK than versus human and rabbit CatK: more than 500 fold
Mouse CatK
  IC50: 108 nM
  fold less potent versus mouse CatK than versus human and rabbit CatK: more than 500 fold

## O=P(O)(O)C(Cl)(Cl)P(=O)(O)O [clodronate]
Growing rats
  trabecular bone volume in the proximal tibial metaphysis vs untreated rats: higher trabecular bone volume

## CC(C)C[C@@H](C(=O)NCC#N)c1cccc(-c2ccc(N3CCNCC3)cc2)c1 [Compound L-833905, (R)-N-(cyanomethyl)-4-methyl-2-(4′-(piperazin-1-yl)-[1,1′-biphenyl]-3-yl)pentanamide]
Rabbit osteoclasts [1]; from the EIA and functional cell-based assay
  fold less potent inhibitor of CatK than L-006235, L-873724 and ODN: 6–30 fold
Rapidly growing rabbits; 10 mg/kg oral once daily
  increase in DFBMD vs vehicle: 3%
  Distal femur BMD: 282.5 ± 5.5 mg/cm^2
Rapidly growing rabbits; 30 mg/kg oral once daily
  increase in DFBMD vs vehicle: 10%
  Distal femur BMD: 301.8 ± 4.9 mg/cm^2
Rabbit CatK
  IC50: 33 ± 2 nM
Rabbit osteoclasts [2]
  IC50: 149 ± 20 nM
[3]; 10 mg/kg
  Cmin: 29 nM
  AUC: 1.9 μm*hr
  Cmax: 163 nM
[3]; 30 mg/kg
  Cmin: 60 nM
  AUC: 6.1 μm*hr
  Cmax: 651 nM

## NCCCC(O)(P(=O)(O)O)P(=O)(O)O [ALN, alendronate, reference compound]
Rapidly growing rabbits; 10 days' treatment, Masson's trichrome
  histology of distal femoral metaphysis compared to vehicle: increased retention of both calcified cartilage and bone tissue
Rapidly growing rabbits; ALN 50 μg/kg SC once daily
  DFBMD: 277.8 ± 8.4 mg/cm^2
Rapidly growing rabbits; ALN 50 μg/kg/day SC
  % BMD gain: 15%
Rapidly growing rabbits; ALN 100 μg/kg SC once daily
  DFBMD: 313.7 ± 3.9 mg/cm^2
Rapidly growing rabbits; ALN 100 μg/kg SC positive control in the L-006235 study
  Distal femur BMD: 300.5 ± 4.6 mg/cm^2
Rapidly growing rabbits; ALN 100 μg/kg SC positive control in the L-833905 study
  Distal femur BMD: 314.0 ± 9.1 mg/cm^2
Rapidly growing rabbits; ALN 100 μg/kg SC positive control in the L-873724 study
  Distal femur BMD: 352.8 ± 9.4 mg/cm^2
Rapidly growing rabbits; ALN 100 μg/kg/day SC
  % BMD gain: 16%
Rapidly growing rabbits; ALN 100 μg/kg/day
  DFBMD of representative DXA image: 361 mg/cm^2
Rapidly growing rabbits; ALN 200 μg/kg SC once daily
  DFBMD: 281.7 ± 6.4 mg/cm^2
Rapidly growing rabbits; ALN 200 μg/kg/day SC
  % BMD gain: 16%
Rapidly growing rabbits; ALN 500 μg/kg SC once daily
  DFBMD: 291.2 ± 9.4 mg/cm^2
Rapidly growing rabbits; ALN 500 μg/kg/day SC
  % BMD gain: 21%
Growing rats; seven days SC 0.010 mg/kg/d
  trabecular bone volume: increased trabecular bone volume
Weanling rats
  distal femoral metaphyseal BMD: increase in distal femoral metaphyseal BMD

## CC(C)C[C@H](N[C@@H](c1ccc(-c2ccc(S(C)(=O)=O)cc2)cc1)C(F)(F)F)C(=O)NCC#N [Compound L-873724]
Rabbit osteoclasts [1]
  fold more potent in the bone resorption assay than L-833905: approximately 30 fold
Rapidly growing rabbits; 1 mg/kg oral once daily
  Distal femur BMD: 301.2 ± 3.7 mg/cm^2
Rapidly growing rabbits; 3 mg/kg oral once daily
  increase in DFBMD vs vehicle: 9%
  Distal femur BMD: 310.5 ± 6.5 mg/cm^2
Rapidly growing rabbits; 10 mg/kg oral once daily
  increase in DFBMD vs vehicle: 15%
  Distal femur BMD: 327.7 ± 7.5 mg/cm^2
Rabbit CatK
  IC50: 0.8 nM
Rabbit osteoclasts [2]
  IC50: 13 ± 1 nM
[3]; 1 mg/kg dose
  Cl: 26 mL/min/kg
[3]; 1 mg/kg, LOD ~ 1 nM
  Cmin: <LOD*
[3]; 1 mg/kg
  AUC: 0.5 μm*hr
  Cmax: 78 nM
[3]; 3 mg/kg
  Cmin: 28 nM
  AUC: 3.1 μm*hr
  Cmax: 490 nM
[3]; 10 mg/kg
  Cmin: 32 nM
  AUC: 7.8 μm*hr
  Cmax: 1370 nM
[3]; [4]
  Cl: 26 mL/min/kg
[3]; [5]
  Cl: 26 mL/min/kg
